Key:
Type in all cases: functional
[1] = tested on: SR; experiment: Growth inhibition of human SR cells by sulforhodamine B assay
[2] = tested on: U-251; experiment: Growth inhibition of human U251 cells assessed as cell growth at 10^-8 M by sulforhodamine B assay; settings: read-out: Activity
[3] = tested on: HCT-15; experiment: Growth inhibition of human HCT15 cells assessed as cell growth at 10^-8 M by sulforhodamine B assay; settings: read-out: Activity
[4] = tested on: CCRF-CEM; experiment: Growth inhibition of human CCRF-CEM cells assessed as cell growth at 10^-8 M by sulforhodamine B assay; settings: read-out: Activity
[5] = tested on: SK-OV-3; experiment: Growth inhibition of human SKOV3 cells by sulforhodamine B assay
[6] = tested on: SK-MEL-5; experiment: Growth inhibition of human SK-MEL-5 cells by sulforhodamine B assay
[7] = tested on: MDA-MB-435; experiment: Growth inhibition of human MDA-MB-435 cells by sulforhodamine B assay
[8] = tested on: Malme-3M; experiment: Growth inhibition of human MALME-3M cells by sulforhodamine B assay
[9] = tested on: SF-539; experiment: Growth inhibition of human SF539 cells by sulforhodamine B assay
[10] = tested on: SNB-19; experiment: Growth inhibition of human SNB19 cells by sulforhodamine B assay
[11] = tested on: SK-OV-3; experiment: Growth inhibition of human SKOV3 cells assessed as cell growth at 10^-4 M by sulforhodamine B assay; settings: read-out: Activity
[12] = tested on: OVCAR-5; experiment: Growth inhibition of human OVCAR5 cells assessed as cell growth at 10^-4 M by sulforhodamine B assay; settings: read-out: Activity
[13] = tested on: IGROV-1; experiment: Growth inhibition of human IGROV1 cells assessed as cell growth at 10^-4 M by sulforhodamine B assay; settings: read-out: Activity
[14] = tested on: SK-MEL-28; experiment: Growth inhibition of human SK-MEL-28 cells assessed as cell growth at 10^-4 M by sulforhodamine B assay; settings: read-out: Activity
[15] = tested on: U-251; experiment: Growth inhibition of human U251 cells assessed as cell growth at 10^-4 M by sulforhodamine B assay; settings: read-out: Activity
[16] = tested on: SNB-75; experiment: Growth inhibition of human SNB75 cells assessed as cell growth at 10^-4 M by sulforhodamine B assay; settings: read-out: Activity
[17] = tested on: SNB-19; experiment: Growth inhibition of human SNB19 cells assessed as cell growth at 10^-4 M by sulforhodamine B assay; settings: read-out: Activity
[18] = tested on: SF-295; experiment: Growth inhibition of human SF295 cells assessed as cell growth at 10^-4 M by sulforhodamine B assay; settings: read-out: Activity
[19] = tested on: A549; experiment: Growth inhibition of human A549/ATCC cells assessed as cell growth at 10^-4 M by sulforhodamine B assay; settings: read-out: Activity
[20] = tested on: ACHN; experiment: Growth inhibition of human ACHN cells assessed as cell growth at 10^-6 M by sulforhodamine B assay; settings: read-out: Activity
[21] = Growth inhibition of human NCI-ADR-RES cells assessed as cell growth at 10^-6 M by sulforhodamine B assay; settings: read-out: Activity
[22] = tested on: OVCAR-8; experiment: Growth inhibition of human OVCAR8 cells assessed as cell growth at 10^-6 M by sulforhodamine B assay; settings: read-out: Activity
[23] = tested on: OVCAR-3; experiment: Growth inhibition of human OVCAR3 cells assessed as cell growth at 10^-6 M by sulforhodamine B assay; settings: read-out: Activity
[24] = tested on: UACC-62; experiment: Growth inhibition of human UACC62 cells assessed as cell growth at 10^-6 M by sulforhodamine B assay; settings: read-out: Activity
[25] = tested on: Malme-3M; experiment: Growth inhibition of human MALME-3M cells assessed as cell growth at 10^-6 M by sulforhodamine B assay; settings: read-out: Activity
[26] = tested on: SW-620; experiment: Growth inhibition of human SW620 cells assessed as cell growth at 10^-6 M by sulforhodamine B assay; settings: read-out: Activity
[27] = tested on: COLO 205; experiment: Growth inhibition of human COLO205 cells assessed as cell growth at 10^-6 M by sulforhodamine B assay; settings: read-out: Activity
[28] = tested on: NCI-H522; experiment: Growth inhibition of human NCI-H522 cells assessed as cell growth at 10^-6 M by sulforhodamine B assay; settings: read-out: Activity
[29] = tested on: MDA-MB-468; experiment: Growth inhibition of human MDA-MB-468 cells assessed as cell growth at 10^-7 M by sulforhodamine B assay; settings: read-out: Activity
[30] = tested on: MCF7; experiment: Growth inhibition of human MCF7 cells assessed as cell growth at 10^-7 M by sulforhodamine B assay; settings: read-out: Activity
[31] = tested on: RXF 393; experiment: Growth inhibition of human RXF393 cells assessed as cell growth at 10^-7 M by sulforhodamine B assay; settings: read-out: Activity
[32] = tested on: SK-OV-3; experiment: Growth inhibition of human SKOV3 cells assessed as cell growth at 10^-7 M by sulforhodamine B assay; settings: read-out: Activity
[33] = tested on: SNB-75; experiment: Growth inhibition of human SNB75 cells assessed as cell growth at 10^-7 M by sulforhodamine B assay; settings: read-out: Activity
[34] = tested on: SW-620; experiment: Growth inhibition of human SW620 cells assessed as cell growth at 10^-7 M by sulforhodamine B assay; settings: read-out: Activity
[35] = tested on: KM12; experiment: Growth inhibition of human KM12 cells assessed as cell growth at 10^-7 M by sulforhodamine B assay; settings: read-out: Activity
[36] = Growth inhibition of human HCC2998 cells assessed as cell growth at 10^-7 M by sulforhodamine B assay; settings: HCC 2998, read-out: Activity
[37] = tested on: COLO 205; experiment: Growth inhibition of human COLO205 cells assessed as cell growth at 10^-7 M by sulforhodamine B assay; settings: read-out: Activity
[38] = tested on: NCI-H23; experiment: Growth inhibition of human NCI-H23 cells assessed as cell growth at 10^-7 M by sulforhodamine B assay; settings: read-out: Activity
[39] = tested on: HOP-62; experiment: Growth inhibition of human HOP62 cells assessed as cell growth at 10^-7 M by sulforhodamine B assay; settings: read-out: Activity
[40] = tested on: HL-60(TB); experiment: Growth inhibition of human HL-60(TB) cells assessed as cell growth at 10^-7 M by sulforhodamine B assay; settings: read-out: Activity
[41] = Growth inhibition of human Hs 578T cells assessed as cell growth at 10^-8 M by sulforhodamine B assay; settings: read-out: Activity
[42] = read-out: LC50 (the source's name)
[43] = read-out: pLC50 (the source's name) (converted)

**Q.** What does the source list for `CC1(C)C[C@@H](O)[C@]2(C(=O)O)CC[C@]3(C)C(=CC[C@@H]4[C@@]5(C)C/C(=C\C=C\c6ccccc6)C(=O)C(C)(C)[C@@H]5CC[C@]43C)[C@@H]2C1`?
**A.** GI50 ([1]; read-out: GI50): 2.48 µM; CC50 [1, 42]: > 100 µM; TGI ([1]; read-out: TGI): 6.91 µM; GI50 ([1]; read-out: pGI50 (converted)): 2.45 µM; CC50 [1, 43]: > 100 µM; TGI ([1]; read-out: pTGI (converted)): 6.92 µM; growth at 0.01 µM [2]: 92%; growth at 0.01 µM [3]: 97%; growth at 0.01 µM [4]: 95%; GI50 ([5]; read-out: GI50): 3.81 µM; CC50 [5, 42]: 46.4 µM; TGI ([5]; read-out: TGI): 14.8 µM; GI50 ([5]; read-out: pGI50 (converted)): 3.8 µM; CC50 [5, 43]: 46.8 µM; TGI ([5]; read-out: pTGI (converted)): 14.8 µM; GI50 ([6]; read-out: GI50): 1.76 µM; CC50 [6, 42]: 6.11 µM; TGI ([6]; read-out: TGI): 3.28 µM; GI50 ([6]; read-out: pGI50 (converted)): 1.74 µM; CC50 [6, 43]: 6.17 µM; TGI ([6]; read-out: pTGI (converted)): 3.31 µM; GI50 ([7]; read-out: GI50): 3.28 µM; CC50 [7, 42]: > 100 µM; TGI ([7]; read-out: TGI): 14.4 µM; GI50 ([7]; read-out: pGI50 (converted)): 3.31 µM; CC50 [7, 43]: > 100 µM; TGI ([7]; read-out: pTGI (converted)): 14.5 µM; GI50 ([8]; read-out: GI50): 2.57 µM; CC50 [8, 42]: 59.2 µM; TGI ([8]; read-out: TGI): 7.23 µM; GI50 ([8]; read-out: pGI50 (converted)): 2.57 µM; CC50 [8, 43]: 58.9 µM; TGI ([8]; read-out: pTGI (converted)): 7.24 µM; GI50 ([9]; read-out: GI50): 2.86 µM; CC50 [9, 42]: 36.7 µM; TGI ([9]; read-out: TGI): 10.6 µM; GI50 ([9]; read-out: pGI50 (converted)): 2.88 µM; CC50 [9, 43]: 36.3 µM; TGI ([9]; read-out: pTGI (converted)): 10.7 µM; GI50 ([10]; read-out: GI50): 4.03 µM; CC50 [10, 42]: 44.5 µM; TGI ([10]; read-out: TGI): 16.5 µM; GI50 ([10]; read-out: pGI50 (converted)): 4.07 µM; CC50 [10, 43]: 44.7 µM; TGI ([10]; read-out: pTGI (converted)): 16.6 µM; growth at 100 µM [11]: -84%; growth at 100 µM [12]: -97%; growth at 100 µM [13]: -59%; growth at 100 µM [14]: -80%; growth at 100 µM [15]: -79%; growth at 100 µM [16]: -70%; growth at 100 µM [17]: -91%; growth at 100 µM [18]: -66%; growth at 100 µM [19]: -63%; growth at 1 µM [20]: 97%; growth at 1 µM [21]: 87%; growth at 1 µM [22]: 93%; growth at 1 µM [23]: 92%; growth at 1 µM [24]: 88%; growth at 1 µM [25]: 96%; growth at 1 µM [26]: 91%; growth at 1 µM [27]: 108%; growth at 1 µM [28]: 94%; growth at 0.1 µM [29]: 96%; growth at 0.1 µM [30]: 92%; growth at 0.1 µM [31]: 94%; growth at 0.1 µM [32]: 102%; growth at 0.1 µM [33]: 89%; growth at 0.1 µM [34]: 97%; growth at 0.1 µM [35]: 99%; growth at 0.1 µM [36]: 97%; growth at 0.1 µM [37]: 100%; growth at 0.1 µM [38]: 95%; growth at 0.1 µM [39]: 91%; growth at 0.1 µM [40]: 108%; growth at 0.01 µM [41]: 97%
